One data set has as its system TRPV1 channel. Further details: method as in 4 sources, ref [12]; anandamide and 2-AG ref [13],[14],[15],[16] ||| ref [88],[89] = [88]; PMID 27281200; doi:10.1038/nature17964; 88. Gao Y. Cao E. Julius D. Cheng Y. TRPV1 structures in nanodiscs reveal mechanisms of ligand and lipid action Nature 2016 534 347 351 10.1038/nature17964 27281200 PMC4911334 || [89]; PMID 37117175; doi:10.1038/s41467-023-38162-9; 89. Neuberger A. Oda M. Nikolaev Y.A. Nadezhdin K.D. Gracheva E.O. Bagriantsev S.N. Sobolevsky A.I. Human TRPV1 structure and inhibition by the analgesic SB-366791 Nat. Commun. 2023 14 2451 10.1038/s4 ||| ref [90] = [90]; PMID 38698206; doi:10.1038/s41594-024-01299-2; 90. Arnold W.R. Mancino A. Moss F.R. Frost A. Julius D. Cheng Y. Structural basis of TRPV1 modulation by endogenous bioactive lipids Nat. Struct. Mol. Biol. 2024 1 9 10.1038/s41594-024-01299-2 3869820 ||| ref [67] = [67]; PMID 29117570; doi:10.1016/j.celrep.2017.10.063; 67. Nersesyan Y. Demirkhanyan L. Cabezas-Bratesco D. Oakes V. Kusuda R. Dawson T. Sun X. Cao C. Cohen A.M. Chelluboina B. Oxytocin Modulates Nociception as an Agonist of Pain-Sensing TRPV1 Cell Rep. 2. The settings on record: cited from earlier work; for TRPV1 channel state: vanilloid pocket, ref [90]; for TRPV1 activation: capsaicin ref [12], anandamide and 2-AG ref [13],[14],[15],[16]. The source says: The transient receptor potential (TRP) channels family involves several subfamilies, including the vanilloid (TRPVs) group. TRPV1, a member of the TRPV subfamily, is a non-selective cationic homotetramer channel. It is known to be activated by various stimuli, including temperature, capsaicin (the principal compound in chili peppers), and endocannabinoids such as anandamide (AEA) and 2-arachidonoylglycerol (2-AG). The TRPV1 channel protein is found in the central (CNS) and peripheral nervous system (PNS). In the CNS, TRPV1 is expressed in the prefrontal cort ... || Molecular dynamics (MD) simulations allow studying protein dynamics at an atomic level under physiological conditions, enhancing our understanding of various proteins, including ion channels like TRPV1 [82]. These simulations provide insight into their function, conformational changes, and interactions with different ligands.

The conditions of data set [1]: ref [106]; cited from earlier work. From the text:
Chronic pain is often accompanied by the development of depression. […] However, a significant challenge in utilizing RVD-Hp as a therapeutic agent lies in the inherent sensitivity of peptides to enzymatic degradation. […] Developing carriers that can stabilize RVD-Hp and facilitate its delivery to the brain is essent ...

The target in data set [2] is T1, human TRPV1 channel (Homo sapiens, UniProt Q8NER1).
T1 construct: host or cells: HEK293
Kind of data set: Whole-cell voltage-clamp recording of TRPV1 currents, HEK293 cells with human TRPV1-GFP. It is filed as cell-based. On the procedure:
(§1) Dr. Alejandro Maureira, Universidad Católica del Maule, Chile, generously provided HEK293 cells. The cells were cultured in T75 flasks (Corning Inc., Corning, NY, USA) in a humidified atmosphere at 37 °C with 5% CO2 in Dulbecco’s Modified Eagle Medium (DMEM) with high glucose (Cytiva, Marlborough, MA, USA), supplemented with 10% fetal bovine serum (Cytiva, Marlborough, MA, USA) and a mixture of 100 IU/mL penicillin and 100 µg/mL streptomycin (Corning Inc., Corning, NY, USA) in a CO2CELL incubator (MMM Group, Munich, Germany). This procedure was used to maintain the cells for all of the experiments.
(§2) HEK293 cells were transfected with the human TRPV1 channel coupled to GFP in its C-terminus (TRPV1-GFP, catalog #: RG217653, Origene, Rockville, MD, USA). […] Transfections were conducted using Lipofectamine 3000 (Invitrogen, Waltham, MA, USA), according to the manufacturer’s instructions. Experimental protocols were performed 24 h post-transfection.
Untransfected and transfected HEK293 cells with the human TRPV1-GFP were recorded using a whole-cell voltage clamp. Cells were cultured in 15 mm round coverslips pretreated with 0.1 mg/mL poly-L-lysine (Gibco, Billings, MT, USA) and transfected with TRPV1-GFP plasmid. TRPV1-GFP-positive cells were identified using a 405 nm LED light in a Nikon Eclipse Ts2 inverted microscope. Borosilicate pipettes (nº 1B150F-4, World Precision Instruments, Sarasota, FL, USA) of 2.8’5 MΩ were used. Pipettes were pulled with a P-97 Micropipette Puller (Sutter Instruments, Novato, CA, USA). The extracellular solution contained (in mM) 140 NaCl, 5 KCl, 2 CaCl2, 1 MgCl2, 10 HEPES, and 6 glucose at pH 7.4. The internal solution contained (in mM) 140 CsCl, 4 MgCl2, 10 EGTA, and 10 HEPES-CsOH at pH 7.3. All the experiments were recorded using a HEKA EPC9 amplifier. The holding potential was −80 mV. A 500 ms voltage ramp from −80 to 80 mV was applied to record TRPV1 currents. The sample frequency was 50 kHz, and the signals were filtered at 2.9 kHz using PatchMaster software. Data were analyzed using Clampfit v.7 software (Molecular Devices, San Jose, CA, USA). The extracellular solution and ligands were administered using a VC-8 perfusion system (~2 mL/s, Warner Instruments, Holliston, MA, USA). We used capsaicin (Cayman Chemicals, nº 92350), SB366791 (nº 11019, Cayman Chemicals, Ann Arbor, MI, USA), and RVD-Hp (Synbio Technologies, Monmouth Junction, NJ, USA). We used dimethyl sulfoxide (DMSO, Sigma-Aldrich, St. Louis, MO, USA) and untransfected cells as controls. Electrophysiological recordings were performed at room temperature.
(§3) The data were analyzed and plotted using GraphPad software v10.0.2. We used the Shapiro–Wilk test to determine the data distribution. […] Statistically significant values were considered when p values were * p < 0.05, ** p < 0.01, *** p < 0.001, and **** p < 0.0001.

The conditions of data set [3]: individuals with osteoarthritis; ref [99]; cited from earlier work. From the text: Capsaicin creams and patches have been used in the treatment of muscle pain, neuropathic pain, arthritis, and migraines. […] CNTX-4975 has been developed as a treatment option for pain in individuals with osteoarthritis.
The target of data set [4] is T1, human TRPV1 channel. Kind of data set: Calcium imaging (Fura Red-AM), HEK293 cells transfected with hTRPV1-GFP. It is filed as cell-based. Conditions: pH 7.4, room temperature. On the procedure:
as §1, §2, §3

For a further data set, the system named is rats. Conditions: cited from earlier work. The source says:
Despite this, evidence of a direct interaction between Hp and the TRPV1 channel is lacking. We speculate that Hp binds and activates TRPV1, possibly engaging the same binding site as RVD-Hp. […] Thus, RVD-Hp emerges and holds potential as a novel modulator for non-opioid analgesia and anxiety treatment. […] Moreover, since RVD-Hp effectively blocks the open TRPV1 channel, it presents a promising approach to inhibit the population of TRPV1 channels that are pathologically over-activated, thereby ... || (+ 1 further places)

The target in data set [5] is human TRPV1 channel coupled to GFP in its C-terminus (human) (UniProt Q8NER1).

Entries after “also recorded” stand apart in the source; their conditions may differ. Peptide text beside a SMILES is read from it.

T1 sequence (Q8NER1 whole entry): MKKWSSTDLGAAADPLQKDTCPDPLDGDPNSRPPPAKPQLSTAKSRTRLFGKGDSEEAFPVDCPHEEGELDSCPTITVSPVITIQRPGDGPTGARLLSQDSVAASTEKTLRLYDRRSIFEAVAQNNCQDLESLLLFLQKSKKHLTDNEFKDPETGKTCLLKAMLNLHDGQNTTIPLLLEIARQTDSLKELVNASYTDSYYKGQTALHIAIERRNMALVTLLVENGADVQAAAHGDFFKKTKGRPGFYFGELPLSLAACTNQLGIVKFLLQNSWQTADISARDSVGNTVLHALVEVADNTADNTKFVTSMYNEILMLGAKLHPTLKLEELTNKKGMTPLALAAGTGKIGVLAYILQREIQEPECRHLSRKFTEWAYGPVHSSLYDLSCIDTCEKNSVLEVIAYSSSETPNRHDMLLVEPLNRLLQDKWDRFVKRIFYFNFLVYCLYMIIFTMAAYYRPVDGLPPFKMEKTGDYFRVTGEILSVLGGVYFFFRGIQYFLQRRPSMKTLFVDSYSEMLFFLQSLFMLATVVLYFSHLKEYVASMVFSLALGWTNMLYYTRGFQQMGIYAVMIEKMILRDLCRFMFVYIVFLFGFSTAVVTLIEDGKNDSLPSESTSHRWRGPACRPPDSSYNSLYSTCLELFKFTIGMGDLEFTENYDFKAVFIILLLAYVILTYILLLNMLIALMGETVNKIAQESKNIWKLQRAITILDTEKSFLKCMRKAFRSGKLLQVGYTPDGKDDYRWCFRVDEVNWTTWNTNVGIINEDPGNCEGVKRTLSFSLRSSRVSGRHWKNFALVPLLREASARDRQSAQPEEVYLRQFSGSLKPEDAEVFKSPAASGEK
Chain of human TRPV1 channel coupled to GFP in its C-terminus (human) (Q8NER1 whole entry): as above

With phosphatidylinositol 4,5-biphosphate, the TRPV1 channel state result in the data set on TRPV1 channel was “favor the close state of the TRPV1 channel”. On to `CC(C)C[C@H](NC(=O)[C@H](CC(C)C)NC(=O)[C@H](CCCCN)NC(=O)[C@H](Cc1ccccc1)NC(=O)[C@H](CC(N)=O)NC(=O)[C@@H](NC(=O)[C@@H]1CCCN1C(=O)[C@H](CC(=O)O)NC(=O)[C@@H](NC(=O)[C@@H](N)CCCNC(=N)N)C(C)C)C(C)C)C(=O)N[C@@H](CO)C(=O)N[C@@H](Cc1cnc[nH]1)C(=O)O` [RVD-Hp, RVD-hemopressin] (H-RVDPVNFKLLSH-OH), for which, in data set [1], the “Blood–brain barrier crossing” value is given as “cannot cross the blood–brain barrier” and the Stability in plasma result was “low stability in plasma”. Also, 18.6 µM corresponded to half-maximal inhibition at human TRPV1 channel [2] (IC50).

For the molecule oxytocin, the “TRPV1 activation and nociception (oxytocin)” value with TRPV1 channel (ref [67]) is “activate the TRPV1 channel and modulate nociception”. Turning to Phosphoinositide, the TRPV1 channel state result with TRPV1 channel is reported as “favor the close state of the TRPV1 channel”. As to `COc1cc(CNC(=O)CCCC/C=C/C(C)C)ccc1O` [CNTX-4975], the Adverse effects result in data set [3] was “nausea, hypotension, oral hypoesthesia, and erythema”.

As to lysophosphatidic acid, in the data set with TRPV1 channel, the TRPV1 channel state result was “induces channel opening”.

With `COc1cccc(NC(=O)/C=C/c2ccc(Cl)cc2)c1` [SB366791], the “TRPV1 binding mode of antagonists” value with TRPV1 channel (requiring four molecules to induce channel closure, ref [88],[89]) was “bind to the vanilloid pocket and compete with capsaicin”. For the same molecule, the “Block of Cap-induced increase in intracellular Ca^2+ concentration” value on human TRPV1 channel [4] (1 µM Cap + 10 µM RVD-Hp (n: 60, * p < 0.032) or 10 µM SB366791 (n: 20, * p < 0.0113), comparison to Cap) is “partially blocked”. At human TRPV1 channel [4] (10 µM alone, no Cap, RVD-Hp n: 59, SB366791 n: 51), the “Effect on intracellular Ca^2+ of the compound alone” value is “Neither 10 µM RVD-Hp nor 10 µM SB366791 augmented the intracellular Ca^2+”. Moreover, in the data set with rats (SB366791 on Hp-induced behavior, ref [8]), the “Effect on Hp-induced anxious behavior” value is “mitigating impact; also recorded: mitigated”. Further, at human TRPV1 channel [2] (10 µM alone vs 1 µM Cap, ***** p < 0.0001), the “Current of compound alone compared with Cap-induced TRPV1 current” value is on record as “significantly different from the Cap-induced TRPV1 current”. Also, at human TRPV1 channel [2] (10 µM alone vs control (n: 7)), the “Current of compound alone compared with control” value is listed as “not different from the control”. In addition, the “TRPV1 currents induced by the compound alone” value at human TRPV1 channel [2] (10 µM alone, +80 mV, RVD-Hp n: 4, SB366791 n: 3, room temperature) is “Neither 10 µM RVD-Hp nor 10 µM SB366791 alone induced TRPV1 currents”. Also, the “Block of Cap-induced TRPV1 currents” value on human TRPV1 channel [2] (10 µM with 1 µM Cap, +80 mV, RVD-Hp n: 4 (* p < 0.0214), SB366791 n: 4 (**** p < 0.0001), comparison to capsaicin, room temperature) is “blocked”.

Consider `CCCCC/C=C\C/C=C\C/C=C\C/C=C\CCCC(=O)NCCO` [anandamide], for which the TRPV1 activation entry in the data set with TRPV1 channel was “activated”. For the molecule `CCCCC/C=C\C/C=C\C/C=C\C/C=C\CCCC(=O)OC(CO)CO` [2-arachidonoylglycerol], the TRPV1 activation entry in the data set on TRPV1 channel is on record as “activated”. For hemopressin, the “Anxiety-like behavior (Hp in rats)” value with rats (rats, ref [8],[9]) is “induces anxiety-like behavior in rats”. For the same molecule, the Anxiety-/depressive-like behavior result in the data set on rats (rodent models, ref [8]) is “induce anxiogenic and depressive-like behaviors”. In data set [5], RVDPVNFKLLSH [RVD-hemopressin] returned a whole-cell voltage clamp of HEK293 cells expressing TRPV1-GFP: inhibition of the TRPV1 current induced by 1 µM capsaicin (at +80 mV), RVD-Hp at 1, 10, 20 and 50 µM; IC50 of 18.6 µM.
